The target in assay [1] is T1, Serine/threonine-protein kinase Nek2 (Homo sapiens) (UniProt P51955).
T1 sequence (whole entry): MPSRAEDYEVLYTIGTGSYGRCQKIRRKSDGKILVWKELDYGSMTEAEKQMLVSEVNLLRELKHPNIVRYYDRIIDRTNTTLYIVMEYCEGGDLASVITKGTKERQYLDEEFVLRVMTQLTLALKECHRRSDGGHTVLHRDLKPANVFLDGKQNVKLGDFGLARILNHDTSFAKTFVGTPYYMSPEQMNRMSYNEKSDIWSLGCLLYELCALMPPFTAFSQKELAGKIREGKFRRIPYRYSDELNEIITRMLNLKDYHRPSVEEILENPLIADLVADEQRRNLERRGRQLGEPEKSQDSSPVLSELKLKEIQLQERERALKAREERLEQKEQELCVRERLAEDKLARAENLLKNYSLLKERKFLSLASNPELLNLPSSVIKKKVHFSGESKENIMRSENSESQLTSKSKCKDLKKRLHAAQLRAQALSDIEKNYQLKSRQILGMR
In words: Inhibition of human NEK2 at 1.82 nM by HotSpot assay relative to control.

For assay [2], the target named is T2, MAP/microtubule affinity-regulating kinase 4 (Homo sapiens) (UniProt Q96L34).
T2 sequence (whole entry): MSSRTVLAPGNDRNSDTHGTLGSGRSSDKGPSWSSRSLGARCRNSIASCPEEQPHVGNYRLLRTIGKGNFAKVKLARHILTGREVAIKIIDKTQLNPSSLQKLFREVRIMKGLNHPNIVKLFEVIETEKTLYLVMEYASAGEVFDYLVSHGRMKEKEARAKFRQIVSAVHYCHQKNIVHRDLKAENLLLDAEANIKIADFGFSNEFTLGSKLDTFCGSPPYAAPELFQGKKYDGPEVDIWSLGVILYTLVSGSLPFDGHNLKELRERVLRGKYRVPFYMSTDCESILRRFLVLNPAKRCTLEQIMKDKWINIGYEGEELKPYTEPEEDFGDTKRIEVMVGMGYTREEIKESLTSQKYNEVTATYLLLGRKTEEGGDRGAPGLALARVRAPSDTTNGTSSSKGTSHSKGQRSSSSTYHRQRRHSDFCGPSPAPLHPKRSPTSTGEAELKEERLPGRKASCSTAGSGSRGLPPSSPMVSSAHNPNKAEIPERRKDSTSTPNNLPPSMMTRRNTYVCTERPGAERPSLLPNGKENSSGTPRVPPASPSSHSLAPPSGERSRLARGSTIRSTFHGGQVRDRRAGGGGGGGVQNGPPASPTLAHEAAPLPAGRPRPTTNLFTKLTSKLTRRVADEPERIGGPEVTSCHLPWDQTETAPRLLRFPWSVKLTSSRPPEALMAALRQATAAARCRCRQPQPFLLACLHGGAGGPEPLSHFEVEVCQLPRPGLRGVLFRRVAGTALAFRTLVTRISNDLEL
In words: Inhibition of human MARK4 at 1.82 nM by HotSpot assay relative to control.

Assay [3] concerns the target T3, Ephrin type-B receptor 3 (Homo sapiens) (UniProt P54753).
T3 sequence (whole entry): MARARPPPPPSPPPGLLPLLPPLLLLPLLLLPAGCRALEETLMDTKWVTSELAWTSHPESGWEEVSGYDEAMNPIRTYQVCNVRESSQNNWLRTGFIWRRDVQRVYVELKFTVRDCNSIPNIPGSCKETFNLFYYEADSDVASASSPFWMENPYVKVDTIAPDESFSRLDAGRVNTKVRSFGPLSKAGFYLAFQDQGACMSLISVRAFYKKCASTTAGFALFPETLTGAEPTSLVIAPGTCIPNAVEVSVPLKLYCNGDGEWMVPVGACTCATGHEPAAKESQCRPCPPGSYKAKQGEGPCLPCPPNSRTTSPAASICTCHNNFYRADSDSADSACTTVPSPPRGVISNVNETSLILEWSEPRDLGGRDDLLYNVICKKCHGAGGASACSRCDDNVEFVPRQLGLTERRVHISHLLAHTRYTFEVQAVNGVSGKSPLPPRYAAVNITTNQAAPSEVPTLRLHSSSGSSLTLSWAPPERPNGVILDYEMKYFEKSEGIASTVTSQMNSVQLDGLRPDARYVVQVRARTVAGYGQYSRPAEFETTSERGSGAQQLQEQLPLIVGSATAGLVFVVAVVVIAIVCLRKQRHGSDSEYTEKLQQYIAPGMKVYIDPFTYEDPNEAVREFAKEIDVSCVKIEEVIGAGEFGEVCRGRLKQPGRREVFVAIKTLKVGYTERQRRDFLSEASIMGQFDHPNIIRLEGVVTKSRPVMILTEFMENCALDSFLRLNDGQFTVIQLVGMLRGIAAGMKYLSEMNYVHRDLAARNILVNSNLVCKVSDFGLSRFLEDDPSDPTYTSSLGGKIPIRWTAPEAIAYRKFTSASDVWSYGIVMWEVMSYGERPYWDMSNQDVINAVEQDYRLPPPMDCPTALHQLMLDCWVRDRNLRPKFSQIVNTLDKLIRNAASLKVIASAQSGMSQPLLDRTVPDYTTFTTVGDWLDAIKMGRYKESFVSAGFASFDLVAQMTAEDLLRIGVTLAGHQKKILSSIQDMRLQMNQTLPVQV
In words: Inhibition of human EPHB3 at 1.82 nM by HotSpot assay relative to control.

The target of assay [4] is Serine/threonine-protein kinase Nek7 (Homo sapiens) (UniProt Q8TDX7). In words: Inhibition of human NEK7 at 1.82 nM by HotSpot assay relative to control.
Serine/threonine-protein kinase Nek7 (Homo sapiens), sequence (Q8TDX7 whole entry, looked up): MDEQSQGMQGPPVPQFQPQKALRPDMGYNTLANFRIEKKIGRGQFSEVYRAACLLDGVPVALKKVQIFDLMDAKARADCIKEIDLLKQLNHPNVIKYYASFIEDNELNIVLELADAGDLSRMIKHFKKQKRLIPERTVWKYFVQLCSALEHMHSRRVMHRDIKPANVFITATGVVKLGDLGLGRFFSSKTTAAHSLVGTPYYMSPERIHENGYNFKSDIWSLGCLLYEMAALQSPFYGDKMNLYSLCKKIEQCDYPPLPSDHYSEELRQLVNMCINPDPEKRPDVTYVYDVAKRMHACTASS

What is called inhibition is the change of the read-out against control, counted positive when it falls.

Take `C[C@@]1(C(=O)Nc2ccc(F)nc2)CCCN1c1nc(Nc2cc(C3CC3)n[nH]2)c2cccn2n1`: the inhibition was 0.74% in assay [1], 2.64% in assay [2], 2.89% in assay [3] and -3.98% in assay [4].

The values are drawn from ChEMBL document CHEMBL5653615 (J Biol Chem, 2013).
